Reference: PMC8272914 (Journal of medicinal chemistry, 2019)

Tests used:
[1] = biological target: hD2R (Homo sapiens, UniProt P14416); assay: Radioligand competition binding vs [3H]-; conditions: vs. [3H]-(R)-(+)-7-OH-DPAT; for Ki: D2R Ki ± SEM, HEK293 cells stably expressing hD2R
[2] = biological target: hD3R (Homo sapiens, UniProt P35462); assay: Radioligand competition binding vs [3H]-; conditions: for Ki: D3R Ki ± SEM, HEK293 cells stably expressing hD3R
[3] = biological target: D3R (Homo sapiens, UniProt P35462); conditions: cited from earlier work
[4] = drug self-administration and drug discrimination, rats; cited from earlier work
[5] = Table 2, vs. [3H]-(R)-(+)-7-OH-DPAT
[6] = Table 1, vs. [3H]-(R)-(+)-7-OH-DPAT

Chain of hD3R (P35462 whole entry): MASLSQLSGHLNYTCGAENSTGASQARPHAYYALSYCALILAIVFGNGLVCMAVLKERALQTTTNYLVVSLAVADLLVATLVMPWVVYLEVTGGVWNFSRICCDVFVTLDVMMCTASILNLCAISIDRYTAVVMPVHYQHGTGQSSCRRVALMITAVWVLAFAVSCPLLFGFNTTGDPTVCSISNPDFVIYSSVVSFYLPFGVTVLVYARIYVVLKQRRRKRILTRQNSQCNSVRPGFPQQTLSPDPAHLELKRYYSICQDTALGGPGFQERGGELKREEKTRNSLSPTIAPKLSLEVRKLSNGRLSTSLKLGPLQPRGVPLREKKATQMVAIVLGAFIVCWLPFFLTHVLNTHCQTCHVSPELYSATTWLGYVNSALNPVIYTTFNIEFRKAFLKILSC
Chain of hD2R (P14416 whole entry): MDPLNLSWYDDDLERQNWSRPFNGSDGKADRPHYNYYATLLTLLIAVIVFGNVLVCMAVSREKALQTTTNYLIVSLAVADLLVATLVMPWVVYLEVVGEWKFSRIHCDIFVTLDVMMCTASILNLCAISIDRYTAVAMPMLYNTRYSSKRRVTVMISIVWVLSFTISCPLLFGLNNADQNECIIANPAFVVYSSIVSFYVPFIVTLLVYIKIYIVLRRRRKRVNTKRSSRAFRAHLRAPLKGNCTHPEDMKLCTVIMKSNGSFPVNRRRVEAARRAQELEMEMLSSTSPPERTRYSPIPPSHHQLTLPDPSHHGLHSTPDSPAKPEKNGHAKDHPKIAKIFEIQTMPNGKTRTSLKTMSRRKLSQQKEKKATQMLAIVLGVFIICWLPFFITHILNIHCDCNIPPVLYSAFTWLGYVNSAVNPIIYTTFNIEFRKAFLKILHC
Chain of D3R (P35462 whole entry): as the sequence (P35462 whole entry) above

`C[C@H]1CO[C@H](c2ccc(N)nc2)CN1CC1CC1CNC(=O)c1cc2ccccc2[nH]1` (stereo partly drawn) [Compound 39b, cis-N-((2-(((2R,5S)-2-(6-aminopyridin-3-yl)-5-methylmorpholino)methyl)cyclopropyl)methyl)-1H-indole-2-carboxamide] gave a Ki ([1]; Table 2) of 7730 nM and a Ki [2, 5] of 32900 nM.

In the case of `C[C@H]1CO[C@@H](c2ccc(N)nc2)CN1CCCCOc1ccc2c(c1)NC(=O)CC2` [Compound 26, 7-(4-((2S,5S)-2-(6-aminopyridin-3-yl)-5-methylmorpholino)butoxy)-3,4-dihydroquinolin-2(1H)-one], the “higher D3R affinity compared to its (2R,5S) diastereoisomer” value ([2]; 27 vs 25, 26 vs 24, vs. [3H]-(R)-(+)-7-OH-DPAT) is reported as 775 fold.

For `C[C@H]1CO[C@@H](c2ccc(N)nc2)CN1CC1CC1CNC(=O)c1cc2ccccc2[nH]1` (stereo partly drawn) [Compound 37a, trans-N-((2-(((2S,5S)-2-(6-aminopyridin-3-yl)-5-methylmorpholino)methyl)cyclopropyl)methyl)-1H-indole-2-carboxamide], the “selectivity for D2R over D3R” value [1] was ~ 5 fold and the Ki [2, 5] was 1190 nM.

For `CCCN[C@H]1CCc2nc(N)sc2C1` [Pramipexole, reference compound], the Ki [2, 6] was 1.69 nM.

For `CCCN1CCO[C@@H]2c3cc(O)ccc3OC[C@H]21` [Compound 1, (4aR,10bR)-4-propyl-3,4,4a,10b-tetrahydro-2H,5H-chromeno[4,3-b][1,4]oxazin-9-ol], the “D3R over D2R selectivity” value [3] is listed as ~ 10 fold.

In the case of `Oc1ccc2c(c1)[C@H]1OCCN[C@@H]1CO2` [Compound 15, (4aR,10bR)-3,4,4a,10b-tetrahydro-2H,5H-chromeno[4,3-b][1,4]oxazin-9-ol], the “reduced affinity (loss of affinity) at both D2R and D3R relative to parent 1” value ([2]; vs. [3H]-(R)-(+)-7-OH-DPAT) is reported as > 200 fold and the “selectivity for D3R over D2R” value ([2]; vs. [3H]-(R)-(+)-7-OH-DPAT) is reported as 10 fold.

For `CCCN1CC(c2ccc(N)nc2)OC[C@@H]1C` (stereo partly shown) [Compound 2], the abuse potential [4] is listed as “lack of abuse potential”.

`C[C@H]1CO[C@H](c2ccc(N)nc2)CN1CC1CC1CNC(=O)c1cc2ccccc2[nH]1` (stereo partly drawn) [Compound 39a, cis-N-((2-(((2R,5S)-2-(6-aminopyridin-3-yl)-5-methylmorpholino)methyl)cyclopropyl)methyl)-1H-indole-2-carboxamide] gave a Ki [2, 5] of 26200 nM.

In the case of `C[C@H]1CO[C@@H](c2ccc(N)nc2)CN1CC1CC1CNC(=O)c1cc2ccccc2[nH]1` (stereo partly drawn) [Compound 38a, cis-N-((2-(((2S,5S)-2-(6-aminopyridin-3-yl)-5-methylmorpholino)methyl)cyclopropyl)methyl)-1H-indole-2-carboxamide], the Ki ([1]; Table 2) is reported as 1070 nM and the Ki [2, 5] is reported as 2150 nM.

For `O=C(NCCCCNC1COc2ccc(O)cc2C1=O)c1cc2ccccc2[nH]1` (stereo not shown) [Compound 19a, N-(4-((6-hydroxy-4-oxochroman-3-yl)amino)butyl)-1H-indole-2-carboxamide], the Ki [2, 6] was 354 ± 45.1 nM and the “reduced affinity (loss of affinity) at both D2R and D3R relative to parent 1” value ([2]; vs. [3H]-(R)-(+)-7-OH-DPAT) was 100–1,000 fold.

In the case of `CCc1cc(Cl)c(OC)c(N2CCN(CCCCOc3ccc4c(c3)NC(=O)CC4)CC2)c1` [Compound 57, 7-(4-(4-(3-chloro-5-ethyl-2-methoxyphenyl)piperazin-1-yl)butoxy)-3,4-dihydroquinolin-2(1H)-one], the “selectivity for D2R over D3R” value [1] is reported as 22 fold.

For `O=C(NCCCCNC1COc2ccc(O)cc2C1=O)c1cc2ccccc2[nH]1` (stereo not shown) [Compound 19b, N-(4-((6-hydroxy-4-oxochroman-3-yl)amino)butyl)-1H-indole-2-carboxamide], the Ki ([1]; Table 1) was 1430 nM, the Ki [2, 6] was 1770 nM and the “reduced affinity (loss of affinity) at both D2R and D3R relative to parent 1” value ([2]; vs. [3H]-(R)-(+)-7-OH-DPAT) was 100–1,000 fold.

With `C[C@H]1CO[C@@H](c2ccc(N)nc2)CN1CC1CC1CNC(=O)c1cc2ccccc2[nH]1` (stereo partly drawn) [Compound 37b, trans-N-((2-(((2S,5S)-2-(6-aminopyridin-3-yl)-5-methylmorpholino)methyl)cyclopropyl)methyl)-1H-indole-2-carboxamide] the Ki ([1]; Table 2) was 707 ± 19.8 nM and the Ki [2, 5] was 404 ± 34 nM.

With `CCCN(CCC)c1ccc(C2CN(CCC)[C@@H](C)CO2)cn1` (stereo partly drawn) [Compound 20, 5-((5S)-5-methyl-4-propylmorpholin-2-yl)-N,N-dipropylpyridin-2-amine] the D4R/D3R ([2]; Table 2, ratio of Ki values vs. [3H]-(R)-(+)-7-OH-DPAT) was >4.74.

Compound `C[C@H]1CO[C@@H](c2ccc(N)nc2)CN1CC1CC1CNC(=O)c1cc2ccccc2[nH]1` (stereo partly drawn) [Compound 38b, cis-N-((2-(((2S,5S)-2-(6-aminopyridin-3-yl)-5-methylmorpholino)methyl)cyclopropyl)methyl)-1H-indole-2-carboxamide] has a Ki ([1]; Table 2) of 120 ± 16.6 nM and a Ki [2, 5] of 276 ± 30 nM.

For `CCCN(CCC)C1CCc2ccc(O)cc2C1` (stereo not shown) [Compound 7-OH-DPAT, 7-Hydroxy-N,N-dipropyl-2-aminotetralin], the “D3R over D2R selectivity” value [3] is given as ~ 10 fold.
